The values below are quoted from earlier work in patent EP2727592A1 (Kücükgüzel, Sükriye Güniz, priority 2012, dated 2014).

The conditions of series [1]: in vivo.
Experiment in series [2]: not given
The source holds these as a separate data set.

Regarding `CC(=O)Nc1ccc(O)cc1` [PAR, 4-hydroxyacetanilide], where the note is “customary dose orally”, the “time to reach the highest amount of plasma concentration” value is 90 min. For the same molecule, for the setting “in vivo”, the Elimination half life is 3.3 h. For the same molecule, the Oral bioavailability (oral) was 63 - 89%. Moreover, in series [1], the eliminated without transformation is on record as 5%; the “turns into N-acetyl-p-benzoquinonimine (NAPQI) with oxidation” value is recorded as 5%; the “turns into glucuronide and sulphate conjugate” value is given as 90%. Moreover, the “dose leading to nausea, vomiting, stomach ache, then liver failure and acute liver necrosis” value in series [2] (adults) is listed as “more than 10 g”. In addition, the paediatric toxic dose in series [2] (children) was 200 mg/kg. The “dose at which the fatality risk shall increase” value in series [2] (taken in one go) is “over 20 g”.
